# From patent publication US20210040073A1, “AZABICYCLO-SUBSTITUTED TRIAZOLE DERIVATIVE, PREPARATION METHOD THEREOF, AND APPLICATION OF SAME IN MEDICINE” (Jiangsu Hengrui Medicine Co., Ltd., priority 2016, published 2021)
# How the values were obtained:
# human V2R = target: T1, human V2R (Homo sapiens, UniProt P30518); assay: Inhibition activity on human V2R (cAMP HTRF assay, HEK293/human V2R pool cells, vasopressin); assay type: cell-based
# T1 construct: expressed in transfected cells; host or cells: HEK293 (G418-selected pool)
# T1 sequence (P30518 whole entry): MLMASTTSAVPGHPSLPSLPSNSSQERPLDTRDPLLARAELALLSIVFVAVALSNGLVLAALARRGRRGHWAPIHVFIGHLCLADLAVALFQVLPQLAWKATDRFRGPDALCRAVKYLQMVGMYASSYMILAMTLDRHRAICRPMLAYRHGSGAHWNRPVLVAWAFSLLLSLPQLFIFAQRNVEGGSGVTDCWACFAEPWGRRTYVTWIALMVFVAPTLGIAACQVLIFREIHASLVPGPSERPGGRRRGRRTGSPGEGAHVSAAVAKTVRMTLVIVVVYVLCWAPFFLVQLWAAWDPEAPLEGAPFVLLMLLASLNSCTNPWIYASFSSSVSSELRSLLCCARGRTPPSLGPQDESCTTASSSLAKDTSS
# Procedure: The inhibition effect of the compounds of the present invention on the activity of human V2R protein expressed in HEK293/human V2R cells was determined by the following experimental method:
# The pcDNA3.1-V2R plasmid was transferred into HEK293 cells with the Lipofectamine® 3000 transfection reagent; G418 was added on the next day, and the HEK293/human V2R pool cell lines were obtained.
# HEK293/human V2R pool cells were digested with the cell dissociation solution (enzyme-free), thereby dissociating the cells from the cell culture dish into individual cells. After completion, the cell solution was blown well, and centrifuged to remove the supernatant. The cells were re-suspended in the test buffer 1 (1×HBSS+20 mM HEPES+0.1% BSA) and counted. The cell density was adjusted to 1250 cells/5 μl, i.e., 2.5*10^5/ml.
# The compounds were formulated into a series of concentrations of 20 mM, 6.67 mM, 2.22 mM, 0.74 mM, 0.25 mM, 0.08 mM, 27.4 μM, 9.14 μM, 3.05 μM, 1.02 μM, 0.34 μM and 0 μM (DMSO) with pure DMSO. The compounds were then formulated into a 4-fold use concentration with the test buffer 2 (test buffer 1+1 mM IBMX).
# Agonist: 460 μM vasopressin was used as the mother liquor, formulated as a 2 μM solution with DMSO, which was then diluted to a 0.5 nM solution with the test buffer 2.
# Standard: The first point was 20 μl of a stock solution (2848 nM), which was diluted successively to a total of eleven concentrations in a 4-fold concentration gradient with the test buffer 1 from the second point.
# 1. The well-mixed cells were added to a 384-well plate (5 μl/well) without changing the tip.
# 2. The test compounds and positive compound formulated were added (2.5 μl/well), and the tips were changed.
# 3. The plate was centrifuged at 1000 rpm for 1 min, shaken for 30 sec to mix well, and incubated at room temperature for 30 min.
# 4. The standard curve wells were added with the test buffer 2 (5 μl/well).
# 5. The agonist formulated was added (2.5 μl/well), and the tips were changed; the plate was centrifuged at 1000 rpm for 1 min, shaken for 30 sec to mix well, and incubated at room temperature for 30 min.
# 6. cAMP-d2 (a component in the cAMP dynamic 2 kit) and Anti-cAMP-Eu-Cryptate (a component in the cAMP dynamic 2 kit) were formulated in the dark, which were then mixed well with cAMP lysate (a component in the cAMP dynamic 2 kit) in a ratio of 1:4. Each well was added with the formulated cAMP-d2 solution (5 μl/well), followed by addition of Anti-cAMP-Eu-Cryptate (5 μl/well). The plate was shaken for 30 sec to mix well, and incubated in the dark at room temperature for 1 h.
# 4) Plate reading: The HTRF signals were read by the PheraStar multi-function microplate reader.
# The data in this test was processed using the data processing software Graphpad Prism.
# The inhibition activity of the compounds of the present invention on human V2R was determined by the above test, and the obtained IC50 values are shown in Table 4.
# human V1aR = target: T2, human V1aR (Homo sapiens, UniProt P37288); assay: Inhibition activity on human V1aR (Fluo-4 calcium assay, HEK293/human V1aR stably transfected cells, vasopressin 3 nM); assay type: cell-based; details: calcium signal
# T2 construct: expressed in transfected cells
# T2 sequence (P37288 whole entry): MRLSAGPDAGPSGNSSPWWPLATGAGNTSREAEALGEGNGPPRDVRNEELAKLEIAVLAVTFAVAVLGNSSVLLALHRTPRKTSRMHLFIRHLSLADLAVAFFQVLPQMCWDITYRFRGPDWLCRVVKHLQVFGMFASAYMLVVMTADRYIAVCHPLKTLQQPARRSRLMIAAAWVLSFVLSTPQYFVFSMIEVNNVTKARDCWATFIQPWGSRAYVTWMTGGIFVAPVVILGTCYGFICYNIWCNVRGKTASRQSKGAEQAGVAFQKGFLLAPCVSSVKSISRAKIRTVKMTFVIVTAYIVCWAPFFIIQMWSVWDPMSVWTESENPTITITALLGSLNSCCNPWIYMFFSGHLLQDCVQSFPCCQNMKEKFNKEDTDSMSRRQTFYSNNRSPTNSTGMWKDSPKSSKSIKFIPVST
# Procedure: The inhibition effect of the compounds of the present invention on the activity of human V1aR protein expressed in HEK293/human V1aR stably transfected cells was determined by the following experimental method:
# The pcDNA3.1-V1aR plasmid was transferred into HEK293 cells with the Lipofectamine® 3000 transfection reagent; G418 was added on the next day to screen, and monoclonal cell lines were selected.
# HEK293/human V1aR stably transfected cells were inoculated in a 96-well plate with an inoculation density of 25,000 cells/well one day in advance. On the next day, a loading buffer containing Fluo-4 dye was formulated using the reagents in the Fluo-4 NW calcium assay kit, and the culture medium was then removed; 100 μl of the loading buffer containing Fluo-4 dye were added to each well, and the plate was incubated at 37° C. for 30 minutes. After that, the plate was moved to room temperature and equilibrated for 10 minutes. The compounds were formulated into concentration gradients of 10^6, 10^5, 10^4, 10^3, 10^2 and 10^1 nM. 1 μl of the compounds in each concentration was added to each well, and the plate was incubated at room temperature for 10 minutes. […] IC50 values of the compounds were calculated by Graphpad prism software using fluorescence signals corresponding to different concentrations.
# The inhibition activity of the compounds of the present invention on human V1aR was determined by the above test, and the obtained IC50 values are shown in Table 2.
# [1] = Pharmacokinetics assay in rats after intragastrical administration; details: 2 mg/kg; for AUC / CL/F / MRT / Vd/F: plasma
# Procedure: Rats were used as test animals. […] The pharmacokinetic behavior of the compounds of the present invention was studied and evaluated in rats.
# After an overnight fast, SD rats were administered intragastrically the test compounds at an administration dosage of 2.0 mg/kg and an administration volume of 10.0 mL/kg.
# 0.2 mL of blood was taken from the orbital sinus before administration and at 0.5, 1.0, 2.0, 4.0, 6.0, 8.0, 11.0 and 24.0 hours after administration. The samples were stored in heparinized tubes, and centrifuged for 10 minutes at 4° C. at 3,500 rpm to separate the blood plasma. The plasma samples were stored at −20° C. The rats were fed 2 hours after administration.
# The content of the test compounds in the plasma of rats after intragastrical administration of the test compounds at different concentrations was determined: 25 μL of rat plasma at each time after administration was taken, added with 50 μL of the internal standard solution of camptothecin (100 ng/mL) and 200 μL of acetonitrile, vortex-mixed for 5 minutes, and centrifuged for 10 minutes (4000 rpm). 1.0 μL of the supernatant was taken from the plasma samples for LC/MS/MS analysis.
# [2] = both, Sprague-Dawley, rat, in vivo, po
IC50 (human V2R) [µM],IC50 (human V1aR) [µM],SMILES,"Plasma concentration Cmax ([1]; SD rats, intragastrical) [ng/mL]","half-life [1, 2] [h]","AUC ([1]; both, Sprague-Dawley, rat, po) [ng·h/mL]","CL/F ([1]; both, Sprague-Dawley, rat, po) [mL/min/kg]","MRT ([1]; both, Sprague-Dawley, rat, po) [h]","Vd/F ([1]; both, Sprague-Dawley, rat, po) [L/kg]","Half-life T½ ([1]; SD rats, intragastrical) [h]","Cmax [1, 2] [ng/mL]"
21.4,1,"COc1ccc(-n2c(COCCF)nnc2N2C[C@@H]3C[C@]3(c3ccc(F)cc3Cl)C2)cn1 [Example 1, (1S,5R)-1-(2-Chloro-4-fluorophenyl)-3-(5-((2-fluoroethoxy)methyl)-4-(6-methoxypyridin-3-yl)-4H-1,2,4-triazol-3-yl)-3-azabicyclo[3.1.0]hexane]",–,–,–,–,–,–,–,–
25.7,3.8,"COCc1nnc(N2C[C@@H]3C[C@]3(c3cccc(F)c3Cl)C2)n1-c1ccc(OC)nc1 [Example 4, (1S,5R)-1-(2-Chloro-3-fluorophenyl)-3-(5-(methoxymethyl)-4-(6-methoxypyridin-3-yl)-4H-1,2,4-triazol-3-yl)-3-azabicyclo[3.1.0]hexane]",–,–,–,–,–,–,–,–
29.5,3.6,"COc1ccc(-n2c(N3C[C@@H]4C[C@]4(c4ccc(F)cc4Cl)C3)nnc2C(F)(F)F)cn1 [Example 12, (1S,5R)-1-(2-Chloro-4-fluorophenyl)-3-(4-(6-methoxypyridin-3-yl)-5-(trifluoromethyl)-4H-1,2,4-triazol-3-yl)-3-azabicyclo[3.1.0]hexane]",–,–,–,–,–,–,–,–

SMILES,IC50 (human V2R) [µM],IC50 (human V1aR) [µM],"Plasma concentration Cmax ([1]; SD rats, intragastrical) [ng/mL]","half-life [1, 2] [h]","AUC ([1]; both, Sprague-Dawley, rat, po) [ng·h/mL]","CL/F ([1]; both, Sprague-Dawley, rat, po) [mL/min/kg]","MRT ([1]; both, Sprague-Dawley, rat, po) [h]","Vd/F ([1]; both, Sprague-Dawley, rat, po) [L/kg]","Half-life T½ ([1]; SD rats, intragastrical) [h]","Cmax [1, 2] [ng/mL]"
"CCOCc1nnc(N2C[C@@H]3C[C@]3(c3ccc(F)cc3Cl)C2)n1-c1ccc(OC)nc1 [Example 6, (1S,5R)-1-(2-Chloro-4-fluorophenyl)-3-(5-(ethoxymethyl)-4-(6-methoxypyridin-3-yl)-4H-1,2,4-triazol-3-yl)-3-azabicyclo[3.1.0]hexane]",7.3,1.7,135 ± 80.0,3.47 ± 1.72,1060 ± 982,68.9 ± 58.8,6.7 ± 0.73,18 ± 17.4,–,–
"COCc1nnc(N2C[C@@H]3C[C@]3(c3ccc(F)cc3Cl)C2)n1-c1ccc(OC)nc1 [Example 9, (1S,5R)-1-(2-Chloro-4-fluorophenyl)-3-(5-(methoxymethyl)-4-(6-methoxypyridin-3-yl)-4H-1,2,4-triazol-3-yl)-3-azabicyclo[3.1.0]hexane]",32.6,2.9,–,–,2040 ± 1020,20.2 ± 10.3,6.23 ± 4.94,6 ± 4.44,3.98 ± 3.55,350 ± 142
